# Reference: patent US7323465B2, “Alkansulfonamides as endothelin antagonists” (Actelion Pharmaceuticals Ltd., priority 2002, dated 2008)
# Assays:
# [1] = target: T1, human recombinant ETA receptors (Homo sapiens, UniProt P25101); experiment: Inhibition of [125I]ET-1 binding to membranes from CHO cells carrying human ETA receptors
# T1 construct: expressed in transfected cells; host or cells: CHO cells (microsomal membranes)
# T1 sequence (P25101 21-427): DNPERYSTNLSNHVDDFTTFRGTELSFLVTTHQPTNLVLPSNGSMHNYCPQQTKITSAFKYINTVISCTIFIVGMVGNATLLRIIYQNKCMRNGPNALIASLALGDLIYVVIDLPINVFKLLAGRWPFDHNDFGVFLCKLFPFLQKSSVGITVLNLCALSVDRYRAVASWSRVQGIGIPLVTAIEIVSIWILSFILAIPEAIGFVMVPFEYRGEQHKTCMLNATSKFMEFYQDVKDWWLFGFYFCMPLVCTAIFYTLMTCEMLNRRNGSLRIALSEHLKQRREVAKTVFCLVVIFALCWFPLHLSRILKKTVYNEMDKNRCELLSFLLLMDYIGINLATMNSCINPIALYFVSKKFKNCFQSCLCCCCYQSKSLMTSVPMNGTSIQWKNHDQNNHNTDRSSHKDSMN
# Description: (§1) 1) Inhibition of Endothelin Binding to Membranes from CHO Cells Carrying Human ET Receptors:
# (§2) For competition binding studies, membranes of CHO cells expressing human recombinant ETA or ETB receptors were used.
# (§3) The assay was performed in 200 uL 50 mM Tris/HCl buffer, pH 7.4, including 25 mM MnCl2, 1 mM EDTA and 0.5% (w/v) BSA in polypropylene microtiter plates. […] After 2 h, the membranes were filtered on filterplates containing GF/C filters (Unifilterplates from Canberra Packard S.A. Zürich, Switzerland). To each well, 50 uL of scintillation cocktail was added (MicroScint 20, Canberra Packard S.A. Zürich, Switzerland) and the filter plates counted in a microplate counter (TopCount, Canberra Packard S.A. Zürich, Switzerland).
# (§4) All the test compounds were dissolved, diluted and added in DMSO.
# [2] = target: T2, human recombinant ETB receptors (Homo sapiens, UniProt P24530); experiment: Inhibition of [125I]ET-1 binding to membranes from CHO cells carrying human ETB receptors
# T2 construct: expressed in transfected cells; host or cells: CHO cells (microsomal membranes)
# T2 sequence (P24530 27-442): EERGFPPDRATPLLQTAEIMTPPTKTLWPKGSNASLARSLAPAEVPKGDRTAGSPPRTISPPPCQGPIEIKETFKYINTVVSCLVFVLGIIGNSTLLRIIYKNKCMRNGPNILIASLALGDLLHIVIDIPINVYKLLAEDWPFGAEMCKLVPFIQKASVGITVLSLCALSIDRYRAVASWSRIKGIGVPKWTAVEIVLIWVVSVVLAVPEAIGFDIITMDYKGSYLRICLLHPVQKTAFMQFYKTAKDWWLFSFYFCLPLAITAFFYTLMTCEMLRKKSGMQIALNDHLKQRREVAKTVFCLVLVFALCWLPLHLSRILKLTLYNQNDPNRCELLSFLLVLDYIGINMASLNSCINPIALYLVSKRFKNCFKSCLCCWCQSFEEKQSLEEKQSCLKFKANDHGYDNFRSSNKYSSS
# Description: as §1, §2, §3, §4
# Note: 2.5% DMSO.
IC50 [1] [nM],IC50 [2] [nM],Structure (SMILES)
0.63,> 1000,CCCCS(=O)(=O)Nc1ncnc(OCCOc2ncc(Br)cn2)c1-c1ccc(C)cc1 [Example 74]
1.1,> 1000,CCCCS(=O)(=O)Nc1ncnc(OCCOc2ncc(SC)cn2)c1-c1ccc(C)cc1 [Example 76]
1.27,> 1000,CCCCS(=O)(=O)Nc1ncnc(OCCOc2ncc(OC)cn2)c1-c1ccc(Br)cc1 [Example 82]
19,636,CCS(=O)(=O)Nc1ncnc(OCCOc2ncc(Br)cn2)c1Oc1ccccc1OC [Example 40]
6.8,> 1000,CCS(=O)(=O)Nc1ncnc(OCCOc2ncc(OC)cn2)c1-c1ccc(Br)cc1 [Example 59]
1.5,> 1000,CCS(=O)(=O)Nc1ncnc(OCCOc2ncc(Br)cn2)c1-c1ccc(Cl)cc1 [Example 66]
18,> 1000,COc1cnc(OCCOc2ncnc(NS(C)(=O)=O)c2-c2ccc(Br)cc2)nc1 [Example 54]
3.5,> 1000,CCCCS(=O)(=O)Nc1ncnc(OCCOc2ncc(OC)cn2)c1-c1ccc(C)cc1 [Example 75]
1.6,359,CS(=O)(=O)Nc1ncnc(OCCOc2ncc(S(C)(=O)=O)cn2)c1-c1ccc(Br)cc1 [Example 56]
28,678,CCS(=O)(=O)Nc1ncnc(OCCOc2ncc(OC)cn2)c1Oc1ccccc1OC [Example 41]
2.1,> 1000,CCCCS(=O)(=O)Nc1nc(C2CC2)nc(OCCOc2ncc(SC)cn2)c1-c1ccc(C)cc1 [Example 79]
25,> 1000,CCS(=O)(=O)Nc1nc(C2CC2)nc(OCCOc2ncc(OC)cn2)c1-c1ccc(C)cc1 [Example 63]
5.5,> 1000,CCS(=O)(=O)Nc1nc(C2CC2)nc(OCCOc2ncc(Br)cn2)c1-c1ccc(C)cc1 [Example 62]
5.7,105,CCS(=O)(=O)Nc1ncnc(OCCOc2ncc(SC)cn2)c1Oc1ccccc1OC [Example 42]
0.66,838,CCS(=O)(=O)Nc1ncnc(OCCOc2ncc(Br)cn2)c1-c1ccc(Br)cc1 [Example 58]
0.59,277,CCCS(=O)(=O)Nc1ncnc(OCCOc2ncc(S(C)(=O)=O)cn2)c1-c1ccc(Br)cc1 [Example 73]
2.3,> 1000,CSc1cnc(OCCOc2ncnc(NS(C)(=O)=O)c2-c2ccc(C)cc2)nc1 [Example 49]
13,> 1000,CCS(=O)(=O)Nc1ncnc(OCCOc2ncc(OC)cn2)c1-c1ccc(Cl)cc1 [Example 67]
3.6,> 1000,CCCS(=O)(=O)Nc1ncnc(OCCOc2ncc(OC)cn2)c1-c1ccc(Br)cc1 [Example 71]
397,> 1000,Cc1ccc(-c2c(NS(C)(=O)=O)ncnc2OCCCOc2ncc(Br)cn2)cc1 [Example 50]
0.8,427,CCS(=O)(=O)Nc1ncnc(OCCOc2ncc(SC)cn2)c1-c1ccc(Br)cc1 [Example 60]
2.3,> 1000,CCCCS(=O)(=O)Nc1nc(C2CC2)nc(OCCOc2ncc(Br)cn2)c1-c1ccc(C)cc1 [Example 77]
0.56,118,CCCCS(=O)(=O)Nc1ncnc(OCCOc2ncc(S(C)(=O)=O)cn2)c1-c1ccc(Br)cc1 [Example 84]
23,> 1000,COc1cnc(OCCOc2ncnc(NS(C)(=O)=O)c2-c2ccc(C)cc2)nc1 [Example 48]
6.9,> 1000,CS(=O)(=O)Nc1ncnc(OCCOc2ncc(C3CC3)cn2)c1-c1ccc(Br)cc1 [Example 57]

# Further lines, the molecule ahead of its results:
Structure (SMILES),IC50 [1] [nM],IC50 [2] [nM]
CCCCS(=O)(=O)Nc1ncnc(OCCOc2ncc(S(C)(=O)=O)cn2)c1Oc1cccc(OC)c1 [Example 31],1.8,180
CCCS(=O)(=O)Nc1ncnc(OCCOc2ncc(OC)cn2)c1Oc1ccccc1OC [Example 33],40,> 1000
CCCCS(=O)(=O)Nc1nc(-c2ncccn2)nc(OCCOc2ncc(SC)cn2)c1Oc1ccccc1OC [Example 27],2.8,153
"CCCS(=O)(=O)Nc1nc(-c2ncccn2)nc(OCCOc2ncc(OC)cn2)c1Oc1ccccc1OC [Example 10, n-propanesulfonic acid [6-[2-(5-methoxy-pyrimidin-2-yloxy)-ethoxy]-5-(2-methoxy-phenoxy)-[2,2′]bipyrimidinyl-4-yl]-amide]",42.6,689
"CCCS(=O)(=O)Nc1nc(-c2ncccn2)nc(OCCOc2ncc(SC)cn2)c1Oc1ccccc1OC [Example 9, n-propanesulfonic acid [6-[2-(5-methylsulfanyl-pyrimidin-2-yloxy)-ethoxy]-5-(2-methoxy-phenoxy)-[2,2′]bipyrimidinyl-4-yl]-amide]",5.2,187
COc1ccccc1Oc1c(NS(C)(=O)=O)ncnc1OCCOc1ncc(Br)cn1 [Example 17],33,599
COc1cnc(OCCOc2nc(-c3ncccn3)nc(NS(C)(=O)=O)c2Oc2ccccc2OC)nc1 [Example 15],125,729
"CCS(=O)(=O)Nc1ncnc(OCCOc2ncc(OC)cn2)c1-c1ccc(C)cc1 [Example 3, ethanesulfonic acid {6-[2-(5-methoxy-pyrimidin-2-yloxy)-ethoxy]-5-p-tolyl-pyrimidin-4-yl}-amide]",38.2,> 1000
COc1cnc(OCCOc2ncnc(NS(C)(=O)=O)c2Oc2ccccc2OC)nc1 [Example 18],205,841
CCCCS(=O)(=O)Nc1ncnc(OCCOc2ncc(OC)cn2)c1Oc1cccc(OC)c1 [Example 29],8.4,402
"CCS(=O)(=O)Nc1nc(-c2ncccn2)nc(OCCOc2ncc(OC)cn2)c1Oc1ccccc1OC [Example 12, ethanesulfonic acid [6-[2-(5-methoxy-pyrimidin-2-yloxy)-ethoxy]-5-(2-methoxy-phenoxy)-[2,2′]bipyrimidinyl-4-yl]-amide]",59,469
CCCCS(=O)(=O)Nc1ncnc(OCCOc2ncc(Br)cn2)c1Oc1cccc(OC)c1 [Example 28],2.9,595
"CCCS(=O)(=O)Nc1ncnc(OCCOc2ncc(OC)cn2)c1-c1ccc(C)cc1 [Example 6, propane-1-sulfonic acid {6-[2-(5-methoxy-pyrimidin-2-yloxy)-ethoxy]-5-p-tolyl-pyrimidin-4-yl}-amide]",17.1,> 1000
"CCS(=O)(=O)Nc1ncnc(OCCOc2ncc(Br)cn2)c1-c1ccc(C)cc1 [Example 1, ethanesulfonic acid {6-[2-(5-bromo-pyrimidin-2-yloxy)-ethoxy]-5-p-tolyl-pyrimidin-4-yl}-amide]",3.96,> 1000
"CCS(=O)(=O)Nc1nc(-c2ncccn2)nc(OCCOc2ncc(SC)cn2)c1Oc1ccccc1OC [Example 11, ethanesulfonic acid [6-[2-(5-methylsulfanyl-pyrimidin-2-yloxy)-ethoxy]-5-(2-methoxy-phenoxy)-[2,2′]bipyrimidinyl-4-yl]-amide]",5.3,59
COc1ccccc1Oc1c(NS(C)(=O)=O)nc(-c2ncccn2)nc1OCCOc1ncc(SC)cn1 [Example 16],12,79
"CCCS(=O)(=O)Nc1ncnc(OCCOc2ncc(SC)cn2)c1-c1ccc(C)cc1 [Example 5, propane-1-sulfonic acid {6-[2-(5-methylsulfanyl-pyrimidin-2-yloxy)-ethoxy]-5-p-tolyo-pyrimidin-4-yl}-amide]",3.6,> 1000
"CCS(=O)(=O)Nc1ncnc(OCCOc2ncc(SC)cn2)c1-c1ccc(C)cc1 [Example 2, ethanesulfonic acid {6-[2-(5-methylsulfanyl-pyrimidin-2-yloxy)-ethoxy]-5-p-tolyl-pyrimidin-4-yl}-amide]",5.99,989
CCCS(=O)(=O)Nc1ncnc(OCCOc2ncc(Br)cn2)c1Oc1ccccc1OC [Example 32],11,> 1000
